# Earlier results as cited in patent US6399104B1, “Pharmaceutical compositions” (AstraZeneca UK Limited, priority 1997, dated 2002).
# Settings: as disclosed in U.S. Pat. No. 5,319,097
compound,measurement,value
"COc1cc(C(=O)NS(=O)(=O)c2ccccc2C)ccc1Cc1cn(C)c2ccc(NC(=O)OC3CCCC3)cc12 [Form A, N-[4-[5-(cyclopentyloxycarbonyl)amino-1-methylindol-3-ylmethyl]-3-methoxybenzoyl]-2-methylbenzene]",bioavailability,good bioavailability
